In patent US5334596A, “Fibrinogen receptor antagonists” (Merck & Co., Inc., priority 1993, dated 1994):
pIC50: −log10 of the molar value.

Columns and labels:
[1] = test system: gel-filtered human platelets; experiment: ADP-stimulated platelet aggregation (gel-filtered human platelets, fibrinogen, Ca2+); assay type: cell-based; conditions: gel-filtered human platelets 2×10^8 per ml, fibrinogen 100 ug/ml, Ca2+ 1 mM, 10 mM ADP, 37° C., read-out: IC50 (inhibition of platelet aggregation by 50% relative to a control lacking the compound)
Experimental: Platelet aggregation is measured at 37° C. in a Chronolog aggregometer. The reaction mixture contains gel-filtered human platelets (2×10^8 per ml), fibrinogen (100 micrograms per ml (ug/ml)), Ca^2+ (1 mM), and the compound to be tested. The aggregation is initiated by adding […] ADP 1 minute after the other components are added. The reaction is then allowed to proceed for at least 2 minutes. The extent of inhibition of aggregation is expressed as the percentage of the rate of aggregation observed in the absence of inhibitor. The IC50 is the dose of a particular compound inhibiting aggregation by 50% relative to a control lacking the compound.
In addition to the following preparative procedures, several examples of in-vitro bioactivity of compounds within the scope of the present invention are indicated. To illustrate, one test which is used to evaluate fibrinogen receptor antagonist activity is based on evaluation of inhibition of ADP-stimulated platelets. Aggregation requires that fibrinogen bind to and occupy the platelet fibrinogen receptor site. Inhibitors of fibrinogen binding inhibit aggregation. In the ADP-stimulated platelet aggregation assay used to determine inhibition associated with the compounds claimed in the instant invention, human platelets are isolated from fresh blood, collected into acid citrate/dextrose by differential centrifugation followed by gel filtration on Sepharose 2B in divalent ion-free Tyrode's buffer (pH 7.4) containing 2% bovine serum albumin.

gp IIb/IIIa complex = conditions: literature, background section; cited from earlier work
[2] = test system: cell attachment-promoting effects of fibronectin and vitronectin; conditions: background section; cited from earlier work

Compound | pIC50 [1] | other results
O=C(O)CCNC(=O)c1cc2c(s1)C(=O)N(CCC1CCNCC1)C2=O [1-6, 5-(2-Carboxyethyl)carboxamide-[N-2-(4-Piperidinyl)ethyl]-2,3-thiophenedicarboximide] | 5.30 | 
CCCCS(=O)(=O)N[C@@H](CNC(=O)c1cc2c(s1)CCN(CCC1CCNCC1)C2=O)C(=O)O [2-9, 2-[3-(2(S)-n-butylsulfonylamino)propionic acid]carboxamide-4-oxo-5-[2-(4-piperidinyl)ethyl]-4,5,6,7-tetrahydro[3,2-c]pyridine] | 8.10 | 
CCCCS(=O)(=O)N[C@@H](CNC(=O)c1csc2c1C(=O)N(CCC1CCNCC1)CC2)C(=O)O [2-11, 3-[3-(2(S)-n-Butylsulfonylamino)propionic acid]carboxamide-4-oxo-5-[2-(4-piperidinyl)ethyl]-4,5,6,7-tetrahydro[3,2-c]pyridine] | 4.48 | 
O=C(NC[C@H](NS(=O)(=O)c1ccccc1)C(=O)O)c1cc2c(s1)CCN(CCC1CCNCC1)C2=O [2-14, 2-[3-(2(S)-Phenylsulfonylamino)propionic acid]carboxamide-4-oxo-5-[2-(4-piperidinyl)ethyl]-4,5,6,7-tetrahydro[3,2-c]pyridine] | 8.10 | 
O=C(NCc1ccccc1)N[C@@H](CNC(=O)c1cc2c(s1)CCN(CCC1CCNCC1)C2=O)C(=O)O [2-17, 2-[3-(2(S)-benzylureido)propionic acid]carboxamide-4-oxo-5-[2-(4-piperidinyl)ethyl]-4,5,6,7-tetrahydro[3,2-c]pyridine] | 7.60 | 
C[C@H](CC(=O)O)NC(=O)c1cc2c(s1)CCN(CCC1CCNCC1)C2=O [2-21, 2-[3-(3(R)-Methyl)propionic acid]carboxamide-4-oxo-5-[2-(4-piperidinyl)ethyl]-4,5,6,7-tetrahydrothieno[3,2-c]pyridine] | 6.66 | 
O=C(O)CCNC(=O)c1cc2c(s1)CCN(CCC1CCNCC1)C2=O [3-3, 2-[3-(Propionic acid)]carboxamide-4-oxo-5-[2-(piperidinyl)]ethyl-4,5,6,7-tetrahydrothieno[3,2-c]pyridine] | 6.82 | 
O=C(O)CCCC(=O)c1cc2c(s1)CCN(CCC1CCNCC1)C2=O [4-3] | 6.59 | 
Echistatin |  | affinity for the gp IIb/IIIa complex (gp IIb/IIIa complex): high affinity
arginine-glycine-aspartic acid [Arg-Gly-Asp] |  | activity of the tripeptide [2]: low activity
